This experiment is described as follows: Inhibition of glycogen phosphorylase (unknown origin) by INPHARMA method. Set-up: species or system Homo sapiens.

Broadly, the IC50 is the concentration that gives 50% inhibition. The low end stands for higher potency, the high end for lower potency.

As to `CN1CC[C@H](c2c(O)cc(O)c3c(=O)cc(-c4ccccc4Cl)oc23)[C@H](O)C1` [ALVOCIDIB], the midpoint of inhibition, the IC50, lay at 1 µM.
Next, `Cn1c(=O)c2c(ncn2C)n(C)c1=O` [CAFFEINE]: 100 µM.
